Earlier results in patent US7083961B1 (priority 2002, dated 2006).

Target: T. foetus IMPDH (Tritrichomonas foetus, UniProt P50097)
Settings: T. foetus enzyme, without cofactor bound

T. foetus IMPDH, sequence (P50097 whole entry): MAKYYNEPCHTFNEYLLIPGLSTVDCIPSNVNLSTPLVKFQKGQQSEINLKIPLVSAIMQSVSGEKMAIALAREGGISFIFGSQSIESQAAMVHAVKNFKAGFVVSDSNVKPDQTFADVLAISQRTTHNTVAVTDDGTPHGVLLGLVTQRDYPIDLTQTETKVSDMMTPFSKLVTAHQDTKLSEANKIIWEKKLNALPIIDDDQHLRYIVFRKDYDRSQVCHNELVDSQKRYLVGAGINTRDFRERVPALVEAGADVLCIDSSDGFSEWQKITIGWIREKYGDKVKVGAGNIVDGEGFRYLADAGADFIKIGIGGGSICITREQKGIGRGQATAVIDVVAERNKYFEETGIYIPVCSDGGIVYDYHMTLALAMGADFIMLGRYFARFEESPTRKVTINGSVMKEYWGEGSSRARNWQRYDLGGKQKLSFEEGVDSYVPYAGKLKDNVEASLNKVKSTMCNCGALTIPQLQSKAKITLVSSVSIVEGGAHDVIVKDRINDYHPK

In the case of `O=c1[nH]c(=O)c2ncn([C@@H]3O[C@H](COP(=O)(O)O)[C@@H](O)[C@H]3O)c2[nH]1` [XMP, xanthosine monophosphate], the off-rate is given as 17 s⁻¹.
